Experimental data: US4261994A, “1,2,4-Oxadiazole derivatives, their preparation and pharmaceutical use” (Synthelabo, priority 1977, dated 1981)
Read-outs that look alike come from different tables or passages of the source.

Legend:
[1] = system: spontaneously hypertonic male rats; experiment: Anti-hypertensive activity in spontaneously hypertonic male rats (method of Gerold and Tschirky), systolic pressure by pulse at caudal artery; assay type: in vivo; settings: Rattus norvegicus, po; for change in vivo at 20 mg/kg: administered dose 20 mg/kg orally; for change in vivo at 5 mg/kg: administered dose 5 mg/kg orally
Procedure: The anti-hypertensive activity is evaluated on spontaneously hypertonic male rats in accordance with the method of Gerold and Tschirky (Arzneim. Forsch, 1968, 18, 1,285). The systolic pressure is measured by taking the pulse at the level of the caudal artery. […]

[2] = Toxicity, 50% lethal dose, intraperitoneal administration to CD1 male rats; settings: rat, in vivo, ip; intraperitoneally to rats, fasted 18 hours; read-out: 50% lethal dose (LD 50)
Procedure: The toxicity of the compounds (I) was determined by intraperitoneal administration to CD1 (Charles River) male rats weighing 100 to 120 g, which had fasted for 18 hours.

[3] = 4 hours, read-out: Anti-hypertensive activity %, 4 hours
[4] = 24 hours, read-out: Anti-hypertensive activity %, 24 hours

**Q.** Which change in vivo at 20 mg/kg [1, 3] does the source give for `CN(C)CCCNc1noc(Cc2c(Cl)cccc2Cl)n1` [Compound 6] here?
**A.** -5%

**Q.** And the change in vivo at 20 mg/kg [1, 4]?
**A.** -7%

**Q.** And the LD50 [2]?
**A.** < 250 mg/kg

**Q.** With `CNc1noc(Cc2c(Cl)cccc2Cl)n1` [Compound 2, 3-Methylamino-5-(2,6-dichlorobenzyl)-1,2,4-oxadiazole] as the compound, how does the change in vivo at 20 mg/kg [1, 3] read?
**A.** -18%

**Q.** What about the change in vivo at 20 mg/kg [1, 4] of the same compound?
**A.** -9%

**Q.** Which results are given for `CN(C)C=Nc1noc(Cc2c(F)cccc2Cl)n1` [Compound 15]?
**A.** change in vivo at 5 mg/kg [1, 3]: -26%; change in vivo at 5 mg/kg [1, 4]: -6%; LD50 [2]: ≤ 500 mg/kg

**Q.** With `CN1CCN(C=Nc2noc(Cc3c(Cl)cccc3Cl)n2)CC1` [Compound 10] as the compound, how does the change in vivo at 20 mg/kg [1, 3] read?
**A.** -29%

**Q.** And the LD50 [2]?
**A.** < 500 mg/kg

**Q.** Which change in vivo at 5 mg/kg [1, 3] does the source give for `Nc1noc(Cc2c(F)cccc2F)n1` [Compound 16] here?
**A.** -18%

**Q.** And the change in vivo at 5 mg/kg [1, 4]?
**A.** -1%

**Q.** Which change in vivo at 5 mg/kg [1, 3] does the source give for `Nc1noc(Cc2cc(Cl)ccc2Cl)n1` [Compound 19] here?
**A.** -18%

**Q.** What about the change in vivo at 5 mg/kg [1, 4] of the same compound?
**A.** -3%

**Q.** What about the LD50 [2] of the same compound?
**A.** ≥ 500 mg/kg

**Q.** For `Nc1noc(Cc2c(Cl)cccc2Cl)n1` [Compound 18, 3-Amino-5-(2,6-dichlorobenzyl)-1,2,4-oxadiazole], which change in vivo at 5 mg/kg [1, 3] is on record?
**A.** -18%

**Q.** And the change in vivo at 5 mg/kg [1, 4]?
**A.** -3%

**Q.** What about the LD50 [2] of the same compound?
**A.** 250 mg/kg

**Q.** With `CN(C)c1noc(Cc2c(Cl)cccc2Cl)n1` [Compound 1] as the compound, how does the change in vivo at 20 mg/kg [1, 3] read?
**A.** -33%

**Q.** What about the change in vivo at 20 mg/kg [1, 4] of the same compound?
**A.** -14%

**Q.** With `Cc1cccc(C)c1Cc1nc(N=CN(C)C)no1` [Compound 14] as the compound, how does the change in vivo at 20 mg/kg [1, 3] read?
**A.** -22%

**Q.** And the change in vivo at 20 mg/kg [1, 4]?
**A.** -13%

**Q.** With `OCCN(C=Nc1noc(Cc2c(Cl)cccc2Cl)n1)CCO` [Compound 11, 3-[N,N-Bis-(2-hydroxyethyl)-formamidino]-5-(2,6-dichlorobenzyl)-1,2,4-oxadiazole] as the compound, how does the change in vivo at 20 mg/kg [1, 3] read?
**A.** -32%

**Q.** And the LD50 [2]?
**A.** ≥ 500 mg/kg

**Q.** Which change in vivo at 20 mg/kg [1, 3] does the source give for `CN(C)C=Nc1noc(Cc2c(Cl)cccc2Cl)n1` [Compound 9] here?
**A.** -29%

**Q.** And the change in vivo at 20 mg/kg [1, 4]?
**A.** -15%

**Q.** And the LD50 [2]?
**A.** > 500 mg/kg
